From patent US11358948B2, “CRBN ligands and uses thereof” (Kymera Therapeutics, Inc., priority 2017, dated 2022) come the findings set out here.

Counter-ions that a name gives are not always drawn. Where only a bound is given, the exact number is not on record here.

In assay [1] the target is His-tagged CRBN-DDB1 complex (Homo sapiens (Human), UniProt Q96SW2). Nature of the assay: Time-Resolved Fluorescence Resonance Energy Transfer (TR-FRET) assay, displacement of Cy5-labeled thalidomide. The assay is classed as binding. Conditions: read-out: CRBN HTRF IC50. On the procedure:
The mixture were incubated at room temperature for 1 hour. […] Quantitative loss of FRET efficiency as a function of compound concentrations was fitted by a four-parameter Logistic Function using GraphPad Prism 7.0 and the IC50 values were reported for each compound.
Background: TR-FRET usually uses a lanthanide donor and a delayed reading to cut background.

The target in assay [2] is Untagged CRBN-DDB1 complex (Homo sapiens (Human), UniProt Q96SW2). In words: Fluorescence Polarization (FP) assay, displacement of Cy5-labeled thalidomide. Format: binding. Conditions: untagged CRBN-DDB1 50 nM, Cy5-labeled thalidomide 20 nM, 10 min room temperature. On the procedure: The final solution contained 50 mM HEPES, 200 mM NaCl and 2 mM DTT, pH 7.5. The mixtures were incubated at room temperature for 10 min. The FP signals were recorded on an EnVision plate reader (Perkin Elmer) using the following settings: Excitation Light (%): 100; Measurement Height: 12; G-Factor: 1; Detector Gain 1: 500; Detector Gain 2: 500; Flash Number: 100. Dose-dependent loss of FP signals was fitted by four-parameter Logistic Function using GraphPad Prism 7.0 and the IC50 values were reported for each compound.
Untagged CRBN-DDB1 complex, sequence (Q96SW2 whole entry): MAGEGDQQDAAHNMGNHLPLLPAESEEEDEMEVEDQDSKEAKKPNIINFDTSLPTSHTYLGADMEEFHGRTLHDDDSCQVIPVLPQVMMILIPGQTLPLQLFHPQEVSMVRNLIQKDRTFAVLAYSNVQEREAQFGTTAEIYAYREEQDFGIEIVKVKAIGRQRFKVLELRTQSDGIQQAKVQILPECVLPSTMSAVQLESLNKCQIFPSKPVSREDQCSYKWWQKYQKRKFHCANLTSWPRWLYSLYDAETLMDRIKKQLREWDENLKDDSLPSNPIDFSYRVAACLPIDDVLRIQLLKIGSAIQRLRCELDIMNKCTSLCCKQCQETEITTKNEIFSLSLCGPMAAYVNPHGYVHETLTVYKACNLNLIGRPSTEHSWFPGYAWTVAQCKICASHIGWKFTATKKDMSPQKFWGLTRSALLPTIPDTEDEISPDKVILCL
Untagged CRBN-DDB1 complex, sequence (Q16531 whole entry partner): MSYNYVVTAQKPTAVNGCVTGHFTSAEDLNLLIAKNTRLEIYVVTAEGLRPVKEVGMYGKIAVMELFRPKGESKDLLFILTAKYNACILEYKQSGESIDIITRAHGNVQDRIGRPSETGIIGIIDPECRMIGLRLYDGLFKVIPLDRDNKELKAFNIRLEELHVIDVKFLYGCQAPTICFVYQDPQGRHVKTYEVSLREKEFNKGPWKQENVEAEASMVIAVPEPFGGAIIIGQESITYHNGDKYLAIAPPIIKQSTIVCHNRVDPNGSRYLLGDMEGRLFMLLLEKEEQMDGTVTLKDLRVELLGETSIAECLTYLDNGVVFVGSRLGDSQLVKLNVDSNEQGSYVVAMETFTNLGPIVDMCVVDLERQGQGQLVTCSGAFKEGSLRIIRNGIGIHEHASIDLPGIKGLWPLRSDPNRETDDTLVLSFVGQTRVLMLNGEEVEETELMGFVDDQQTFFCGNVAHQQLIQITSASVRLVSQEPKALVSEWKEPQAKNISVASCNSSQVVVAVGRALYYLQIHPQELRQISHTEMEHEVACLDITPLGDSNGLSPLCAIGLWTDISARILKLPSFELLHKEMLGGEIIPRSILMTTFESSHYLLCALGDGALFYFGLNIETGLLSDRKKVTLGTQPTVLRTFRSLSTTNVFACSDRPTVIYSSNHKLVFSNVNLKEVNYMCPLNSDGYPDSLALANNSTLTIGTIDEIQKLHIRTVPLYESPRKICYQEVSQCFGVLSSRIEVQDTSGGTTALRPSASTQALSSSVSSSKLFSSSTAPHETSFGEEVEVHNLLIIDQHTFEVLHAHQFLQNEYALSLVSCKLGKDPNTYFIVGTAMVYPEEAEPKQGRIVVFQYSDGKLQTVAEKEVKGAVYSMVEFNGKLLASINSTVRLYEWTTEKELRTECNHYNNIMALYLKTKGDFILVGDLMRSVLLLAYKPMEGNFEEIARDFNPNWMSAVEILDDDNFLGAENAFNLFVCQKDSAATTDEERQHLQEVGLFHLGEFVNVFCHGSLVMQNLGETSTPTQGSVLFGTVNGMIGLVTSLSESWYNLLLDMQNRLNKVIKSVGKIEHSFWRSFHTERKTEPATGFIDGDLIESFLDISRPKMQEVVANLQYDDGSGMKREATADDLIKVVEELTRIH
(Polarisation of emitted light reports the rotation of a fluorescent probe.)

A word on the IC50: it is the point on the concentration scale where inhibition reaches its midpoint.

His-tagged CRBN-DDB1 complex, sequence (Q96SW2 whole entry): as the sequence (Q96SW2 whole entry) above
His-tagged CRBN-DDB1 complex, sequence (Q16531 whole entry partner): as the sequence (Q16531 whole entry partner) above

On to `O=C1CC[C@@H](N2C[C@H](c3ccc(Br)cc3)OC2=O)C(=O)N1` [Compound I-72, (R)-3-((S)-5-(4-bromophenyl)-2-oxooxazolidin-3-yl)piperidine-2,6-dione], for which, in assay [1], the half-maximal inhibitory concentration (IC50) was less than 1 µM.
The same measure, in the same setting: as for `Cn1c(=O)n(C2CCC(=O)NC2=O)c2cccc(C#CCOCCOCCNC(=O)OC(C)(C)C)c21` (centres unmarked) [Compound I-86, tert-butyl (2-(2-((3-(1-(2,6-dioxopiperidin-3-yl)-3-methyl-2-oxo-2,3-dihydro-1H-benzo[d]imidazol-4-yl)prop-2-yn-1-yl)oxy)ethoxy)ethyl)carbamate], the figure is less than 1 µM; as for `CC(=O)NCc1ccc2c(c1)n(C)c(=O)n2C1CCC(=O)NC1=O` (centres unmarked) [Compound I-66, N-((1-(2,6-dioxopiperidin-3-yl)-3-methyl-2-oxo-2,3-dihydro-1H-benzo[d]imidazol-5-yl)methyl)acetamide], less than 1 µM.
Take `Cn1c(=O)n(C2CCC(=O)NC2=O)c2ccc(C(N)=O)cc21` (centres unmarked) [Compound I-90, 1-(2,6-dioxopiperidin-3-yl)-3-methyl-2-oxo-2,3-dihydro-1H-benzo[d]imidazole-5-carboxamide]: in assay [1], the IC50 was greater than 100 µM.
On to `Cn1c(=O)n(C2CCC(=O)NC2=O)c2ccc(N)cc21` (centres unmarked) [Compound I-65, 3-(5-Amino-3-methyl-2-oxo-2,3-dihydro-1H-1,3-benzodiazol-1-yl)piperidine-2,6-dione Hydrochloride], for which the IC50 in assay [1] is less than 1 µM.
Same read-out and setting: the same measure for `Cc1nc(-c2ccc3c(c2)n(C)c(=O)n3C2CCC(=O)NC2=O)c[nH]1` (centres unmarked) [Compound I-80, 3-(3-methyl-5-(2-methyl-1H-imidazol-5-yl)-2-oxo-2,3-dihydro-1H-benzo[d]imidazol-1-yl)piperidine-2,6-dione]: less than 1 µM; for `Cn1c(=O)n(C2CCC(=O)NC2=O)c2ccc(-c3cn(CCOCCOCCOCCNC(=O)OC(C)(C)C)nn3)cc21` (centres unmarked) [Compound I-82, tert-butyl (2-(2-(2-(2-(4-(1-(2,6-dioxopiperidin-3-yl)-3-methyl-2-oxo-2,3-dihydro-1H-benzo[d]imidazol-5-yl)-1H-1,2,3-triazol-1-yl)ethoxy)ethoxy)ethoxy)ethyl)carbamate]: less than 1 µM.
Turning to `O=C1CC[C@H](N2C[C@H](c3ccc(Br)cc3)OC2=O)C(=O)N1` [Compound I-73, (S)-3-((S)-5-(4-bromophenyl)-2-oxooxazolidin-3-yl)piperidine-2,6-dione], the IC50 in assay [1] was 10 to 100 µM.
The same measure, in the same setting: as for `CNc1ccc2c(c1)n(C)c(=O)n2C1CCC(=O)NC1=O` (centres unmarked) [Compound I-68, 3-(3-methyl-5-(methylamino)-2-oxo-2,3-dihydro-1H-benzo[d]imidazol-1-yl)piperidine-2,6-dione], the figure is less than 1 µM; as for `Cn1c(=O)n(C2CCC(=O)NC2=O)c2ccc(CCCOCCOCCOCCOCCNC(=O)OC(C)(C)C)cc21` (centres unmarked) [Compound I-85, tert-butyl (15-(1-(2,6-dioxopiperidin-3-yl)-3-methyl-2-oxo-2,3-dihydro-1H-benzo[d]imidazol-5-yl)-3,6,9,12-tetraoxapentadecyl)carbamate], less than 1 µM; as for `Cc1ccc2c(c1)n(C)c(=O)n2C1CCC(=O)NC1=O` (centres unmarked) [Compound I-63, 3-(3,5-dimethyl-2-oxo-2,3-dihydro-1H-benzo[d]imidazol-1-yl)piperidine-2,6-dione], less than 1 µM.
The same measure, in the same setting: as for `Cn1c(=O)n(C2CCC(=O)NC2=O)c2cccc(C#N)c21` (centres unmarked) [Compound I-78], the figure is less than 1 µM.
On the same count and under the same terms, the same measure for `Cn1c(=O)n(C2CCC(=O)NC2=O)c2cccc([N+](=O)[O-])c21` (centres unmarked) [Compound I-75, 3-(3-methyl-4-nitro-2-oxo-2,3-dihydro-1H-1,3-benzodiazol-1-yl)piperidine-2,6-dione]: less than 1 µM; for `Cn1c(=O)n(C2CCC(=O)NC2=O)c2ccc(CN)cc21` (centres unmarked) [Compound I-64, 3-(5-(Aminomethyl)-3-methyl-2-oxo-2,3-dihydro-1H-benzo[d]imidazol-1-yl)piperidine-2,6-dione]: less than 1 µM; for `CCNC(=O)NCc1ccc2c(c1)n(C)c(=O)n2C1CCC(=O)NC1=O` (centres unmarked) [Compound I-71, 1-((1-(2,6-dioxopiperidin-3-yl)-3-methyl-2-oxo-2,3-dihydro-1H-benzo[d]imidazol-5-yl)methyl)-3-ethylurea]: less than 1 µM.
For the compound `CC(=O)Nc1ccc2c(c1)n(C)c(=O)n2C1CCC(=O)NC1=O` (centres unmarked) [Compound I-62, N-(1-(2,6-dioxopiperidin-3-yl)-3-methyl-2-oxo-2,3-dihydro-1H-benzo[d]imidazol-5-yl)acetamide], the IC50 in assay [1] is less than 1 µM.
Regarding `CN(C)Cc1ccc2c(c1)n(C)c(=O)n2C1CCC(=O)NC1=O` (centres unmarked) [Compound I-61, 3-(5-((dimethylamino)methyl)-3-methyl-2-oxo-2,3-dihydro-1H-benzo[d]imidazol-1-yl)piperidine-2,6-dione], the IC50 in assay [1] is 1 to 10 µM.
Consider `CN(C)c1ccc2c(c1)n(C)c(=O)n2C1CCC(=O)NC1=O` (centres unmarked) [Compound I-69, 3-(5-(dimethylamino)-3-methyl-2-oxo-2,3-dihydro-1H-benzo[d]imidazol-1-yl)piperidine-2,6-dione], for which the IC50 in assay [1] is less than 1 µM.
On to `Cn1c(=O)n(C2CCC(=O)NC2=O)c2ccc(CNC(N)=O)cc21` (centres unmarked) [Compound I-74, 1-((1-(2,6-dioxopiperidin-3-yl)-3-methyl-2-oxo-2,3-dihydro-1H-benzo[d]imidazol-5-yl)methyl)urea], for which the IC50 in assay [1] was less than 1 µM.
For the compound `O=C1CCC(N2C[C@H](c3cccc(Br)c3)OC2=O)C(=O)N1` (single isomer, unassigned) [Compound I-84, (R)-3-((S)-5-(3-bromophenyl)-2-oxooxazolidin-3-yl)piperidine-2,6-dione or (S)-3-((S)-5-(3-bromophenyl)-2-oxooxazolidin-3-yl)piperidine-2,6-dione], the IC50 in assay [1] is less than 1 µM.
With `CC(C)(C)OC(=O)NCCOCCOCCOCCOCCCc1ccc([C@H]2CN(C3CCC(=O)NC3=O)C(=O)O2)cc1` (stereo partly drawn) [Compound I-83, tert-butyl (15-(4-((5S)-3-(2,6-dioxopiperidin-3-yl)-2-oxooxazolidin-5-yl)phenyl)-3,6,9,12-tetraoxapentadecyl)carbamate], the IC50 in assay [1] was less than 1 µM.
Consider `CCNC(=O)Nc1ccc2c(c1)n(C)c(=O)n2C1CCC(=O)NC1=O` (centres unmarked) [Compound I-67, 1-(1-(2,6-dioxopiperidin-3-yl)-3-methyl-2-oxo-2,3-dihydro-1H-benzo[d]imidazol-5-yl)-3-ethylurea], for which the IC50 in assay [1] was less than 1 µM.
Still for that read-out and setting: the same measure for `CNC(=O)c1ccc2c(c1)n(C)c(=O)n2C1CCC(=O)NC1=O` (centres unmarked) [Compound I-70, 1-(2,6-Dioxopiperidin-3-yl)-N,3-dimethyl-2-oxo-2,3-dihydro-1H-benzo[d]imidazole-5-carboxamide]: 1 to 10 µM; for `Cn1c(=O)n(C2CCC(=O)NC2=O)c2cccc(N)c21` (centres unmarked) [Compound I-81, 3-(4-amino-3-methyl-2-oxo-2,3-dihydro-1H-benzo[d]imidazol-1-yl)piperidine-2,6-dione]: less than 1 µM; for `Cc1cc(-c2ccc3c(c2)n(C)c(=O)n3C2CCC(=O)NC2=O)n[nH]1` (centres unmarked) [Compound I-79, 3-(3-methyl-5-(3-methyl-1H-pyrazol-5-yl)-2-oxo-2,3-dihydro-1H-benzo[d]imidazol-1-yl)piperidine-2,6-dione]: less than 1 µM.
As to `O=C1CCC(N2C(=O)Cc3ccccc32)C(=O)N1` (centres unmarked) [Compound I-3, 3-(2-Oxo-2,3-dihydro-1H-indol-1-yl)piperidine-2,6-dione], the figures for the IC50 in assay [2] and in assay [1] were greater than 100 µM and 10 to 100 µM, respectively.
As for `CC(C)(C)OC(=O)NCCOCCOCCOCCOCC#Cc1ccc([C@H]2CN([C@H]3CCC(=O)NC3=O)C(=O)O2)cc1` [Compound I-77, tert-butyl (15-(4-((S)-3-((S)-2,6-dioxopiperidin-3-yl)-2-oxooxazolidin-5-yl)phenyl)-3,6,9,12-tetraoxapentadec-14-yn-1-yl)carbamate], the IC50 in assay [1] is less than 1 µM.
`CCOC(=O)NCc1ccc2c(c1)n(C)c(=O)n2C1CCC(=O)NC1=O` (centres unmarked) [Compound I-76, ethyl ((1-(2,6-dioxopiperidin-3-yl)-3-methyl-2-oxo-2,3-dihydro-1H-benzo[d]imidazol-5-yl)methyl)carbamate]: in assay [1], the IC50 is less than 1 µM.
